According to the supplement of paper PMC11061612:

Assays:
Carboplatin = compound: C1CC(C1)(C(=O)[O-])C(=O)[O-].N.N.[Pt+2] [Carboplatin]; details: max 10 µM
How it was run: (§1)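 Cancer cell lines were dosed for 72 hours (final DMSO typically 0.2%) after 24 hours at 37°C and 5% CO2 in 1536-well plates containing 7.5 μl DMEM/F12 or RPMI with 10% FBS. Viability came from CellTiter-Glo 2.0 luminescence, scaled between blank-well and DMSO-well means, and dose responses were fitted to a two-parameter logistic curve with a non-linear mixed effects model. The single-agent IC50 was obtained from this fit.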

AZD5363 = compound: C1CN(CCC1(C(=O)N[C@@H](CCO)C2=CC=C(C=C2)Cl)N)C3=NC=NC4=C3C=CN4 [AZD5363]; details: max 10 µM
How it was run: as §1

AZD1775 = compound: C=CCn1c(=O)c2cnc(Nc3ccc(N4CCN(C)CC4)cc3)nc2n1-c1cccc(C(C)(C)O)n1 [AZD1775]; details: max 3 µM
How it was run: as §1

Trametinib = compound: CC(=O)Nc1cccc(-n2c(=O)n(C3CC3)c(=O)c3c(Nc4ccc(I)cc4F)n(C)c(=O)c(C)c32)c1 [Trametinib]; details: max 1 µM
How it was run: as §1

Paclitaxel = compound: CC(=O)O[C@H]1C(=O)[C@@]2(C)[C@H]([C@H](OC(=O)c3ccccc3)[C@]3(O)C[C@H](OC(=O)[C@H](O)[C@@H](NC(=O)c4ccccc4)c4ccccc4)C(C)=C1C3(C)C)[C@]1(OC(C)=O)CO[C@@H]1C[C@@H]2O [Paclitaxel]; details: max 3 µM
How it was run: as §1

Palbociclib = compound: CC(=O)c1c(C)c2cnc(Nc3ccc(N4CCNCC4)cn3)nc2n(C2CCCC2)c1=O [Palbociclib]; details: max 10 µM
How it was run: as §1

AZD1390 = compound: CC(C)n1c(=O)n(C)c2cnc3cc(F)c(-c4ccc(OCCCN5CCCCC5)nc4)cc3c21 [AZD1390]; details: max 0.3 µM
How it was run: as §1

Venetoclax = compound: CC1(C)CCC(CN2CCN(c3ccc(C(=O)NS(=O)(=O)c4ccc(NCC5CCOCC5)c([N+](=O)[O-])c4)c(Oc4cnc5[nH]ccc5c4)c3)CC2)=C(c2ccc(Cl)cc2)C1 [Venetoclax]; details: max 1 µM
How it was run: as §1

Dasatinib = compound: CC1=C(C(=CC=C1)Cl)NC(=O)C2=CN=C(S2)NC3=CC(=NC(=N3)C)N4CCN(CC4)CCO [Dasatinib]; details: max 2 µM
How it was run: as §1

SG3199 = compound: CC1=CN2[C@@H](C1)C=NC3=CC(=C(C=C3C2=O)OC)OCCCCCOC4=C(C=C5C(=C4)N=C[C@@H]6CC(=CN6C5=O)C)OC [SG3199]; details: max 0.001 µM
How it was run: as §1

AZD2811 = compound: CCN(CCO)CCCOc1ccc2c(Nc3cc(CC(=O)Nc4cccc(F)c4)[nH]n3)ncnc2c1 [AZD2811]; details: max 1 µM
How it was run: as §1

SN-38 = compound: CCc1c2c(nc3ccc(O)cc13)-c1cc3c(c(=O)n1C2)COC(=O)[C@]3(O)CC [SN-38]; details: max 0.3 µM
How it was run: as §1

AZD0156 = compound: CN(C)CCCOc1ccc(-c2ccc3ncc4c(c3c2)n(C2CCOCC2)c(=O)n4C)cn1 [AZD0156]; details: max 3 µM
How it was run: as §1

AZD4320 = compound: CN(CC[C@H](CSC1=CC=CC=C1)NC2=C(C=C(C=C2)S(=O)(=O)NC(=O)C3=CC=C(C=C3)N4CCC(CC4)[C@H](C5=CC=CC=C5C6=CC=C(C=C6)Cl)O)S(=O)(=O)C(F)(F)F)CCO [AZD4320]; details: max 1 µM
How it was run: as §1

Alisertib = compound: COc1cc(Nc2ncc3c(n2)-c2ccc(Cl)cc2C(c2c(F)cccc2OC)=NC3)ccc1C(=O)O [Alisertib]; details: max 10 µM
How it was run: as §1

Etoposide = compound: COc1cc([C@@H]2c3cc4c(cc3[C@@H](O[C@@H]3O[C@@H]5CO[C@@H](C)O[C@H]5[C@H](O)[C@H]3O)[C@H]3COC(=O)[C@H]23)OCO4)cc(OC)c1O [Etoposide]; details: max 10 µM
How it was run: as §1

Gefitinib = compound: COc1cc2ncnc(Nc3ccc(F)c(Cl)c3)c2cc1OCCCN1CCOCC1 [Gefitinib]; details: max 10 µM
How it was run: as §1

Prexasertib = compound: COc1cccc(OCCCN)c1-c1cc(Nc2cnc(C#N)cn2)n[nH]1 [Prexasertib]; details: max 1 µM
How it was run: as §1

Doxorubicin = compound: COc1cccc2c1C(=O)c1c(O)c3c(c(O)c1C2=O)C[C@@](O)(C(=O)CO)C[C@@H]3O[C@H]1C[C@H](N)[C@H](O)[C@H](C)O1 [Doxorubicin]; details: max 1 µM
How it was run: as §1

AZD5153 = compound: COc1nnc2ccc(N3CCC(c4ccc(OCCN5CCN(C)C(=O)[C@H]5C)cc4)CC3)nn12 [AZD5153]; details: max 1 µM
How it was run: as §1

Lapatinib = compound: CS(=O)(=O)CCNCc1ccc(-c2ccc3ncnc(Nc4ccc(OCc5cccc(F)c5)c(Cl)c4)c3c2)o1 [Lapatinib]; details: max 10 µM
How it was run: as §1

AZD8186 = compound: C[C@@H](Nc1cc(F)cc(F)c1)c1cc(C(=O)N(C)C)cc2c(=O)cc(N3CCOCC3)oc12 [AZD8186]
How it was run: as §1

Crizotinib = compound: C[C@@H](Oc1cc(-c2cnn(C3CCNCC3)c2)cnc1N)c1c(Cl)ccc(F)c1Cl [Crizotinib]; details: max 10 µM
How it was run: as §1

Savolitinib = compound: C[C@@H](c1ccc2nccn2c1)n1nnc2ncc(-c3cnn(C)c3)nc21 [Savolitinib]; details: max 1 µM
How it was run: as §1

AZD6738 = compound: C[C@@H]1COCCN1C2=NC(=NC(=C2)C3(CC3)[S@](=N)(=O)C)C4=C5C=CNC5=NC=C4 [AZD6738]; details: max 10 µM
How it was run: as §1

AZD5991 = compound: Cc1c2c(nn1C)CSCc1cc(n(C)n1)CSc1cc(c3ccccc3c1)OCCCc1c(C(=O)O)n(C)c3c-2c(Cl)ccc13 [AZD5991]; details: max 1 µM
How it was run: as §1

AZD7648 = compound: Cc1cc2ncnn2cc1Nc1ncc2c(n1)n(C1CCOCC1)c(=O)n2C [AZD7648]; details: max 10 µM
How it was run: as §1

Taselisib = compound: Cc1nc(-c2cn3c(n2)-c2ccc(-c4cnn(C(C)(C)C(N)=O)c4)cc2OCC3)n(C(C)C)n1 [Taselisib]; details: max 10 µM
How it was run: as §1

Selumetinib = compound: Cn1cnc2c(F)c(Nc3ccc(Br)cc3Cl)c(C(=O)NOCCO)cc21 [Selumetinib]; details: max 10 µM
How it was run: as §1

SRA737 = compound: N#Cc1cnc(Nc2cc(NC[C@H]3CNCCO3)c(C(F)(F)F)cn2)cn1 [SRA737]; details: max 10 µM
How it was run: as §1

MK-2206 = compound: NC1(c2ccc(-c3nc4ccn5c(=O)[nH]nc5c4cc3-c3ccccc3)cc2)CCC1 [MK-2206]; details: max 10 µM
How it was run: as §1

Gemcitabine = compound: Nc1ccn([C@@H]2O[C@H](CO)[C@@H](O)C2(F)F)c(=O)n1 [Gemcitabine]; details: max 0.3 µM
How it was run: as §1

[1] = compound: O=C(Nc1ccc2[nH]nc(-c3ccncc3)c2c1)[C@@H]1CCN(CC(=O)N2CCN(c3ccc(-c4ncccn4)cc3)CC2)C1; details: max 5 µM
How it was run: as §1

Olaparib = compound: O=C(c1cc(Cc2n[nH]c(=O)c3ccccc23)ccc1F)N1CCN(C(=O)C2CC2)CC1 [Olaparib]; details: max 10 µM
How it was run: as §1

5-Fluorouracil = compound: O=c1[nH]cc(F)c(=O)[nH]1 [5-Fluorouracil]; details: max 20 µM
How it was run: as §1

Capivasertib = compound: C1CN(CCC1(C(=O)N[C@@H](CCO)C2=CC=C(C=C2)Cl)N)C3=NC=NC4=C3C=CN4 [Capivasertib]; details: max 10 µM
How it was run: as §1

Cell Line	IC50, cell viability 72 h (Carboplatin) [nM]	IC50, cell viability 72 h (AZD5363) [nM]	IC50, cell viability 72 h (AZD1775) [nM]	IC50, cell viability 72 h (Trametinib) [nM]	IC50, cell viability 72 h (Paclitaxel) [nM]	IC50, cell viability 72 h (Palbociclib) [nM]	IC50, cell viability 72 h (AZD1390) [nM]	IC50, cell viability 72 h (Venetoclax) [nM]	IC50, cell viability 72 h (Dasatinib) [nM]	IC50, cell viability 72 h (SG3199) [nM]	IC50, cell viability 72 h (AZD2811) [nM]	IC50, cell viability 72 h (SN-38) [nM]	IC50, cell viability 72 h (AZD0156) [nM]	IC50, cell viability 72 h (AZD4320) [nM]	IC50, cell viability 72 h (Alisertib) [nM]	IC50, cell viability 72 h (Etoposide) [nM]	IC50, cell viability 72 h (Gefitinib) [nM]	IC50, cell viability 72 h (Prexasertib) [nM]	IC50, cell viability 72 h (Doxorubicin) [nM]	IC50, cell viability 72 h (AZD5153) [nM]	IC50, cell viability 72 h (Lapatinib) [nM]	IC50, cell viability 72 h (AZD8186; max 10 µM) [nM]	IC50, cell viability 72 h (Crizotinib) [nM]	IC50, cell viability 72 h (Savolitinib) [nM]	IC50, cell viability 72 h (AZD6738) [nM]	IC50, cell viability 72 h (AZD5991) [nM]	IC50, cell viability 72 h (AZD7648) [nM]	IC50, cell viability 72 h (Taselisib) [nM]	IC50, cell viability 72 h (Selumetinib) [nM]	IC50, cell viability 72 h (SRA737) [nM]	IC50, cell viability 72 h (MK-2206) [nM]	IC50, cell viability 72 h (Gemcitabine) [nM]	IC50, cell viability 72 h [1] [nM]	IC50, cell viability 72 h (Olaparib) [nM]	IC50, cell viability 72 h (5-Fluorouracil) [nM]	IC50, cell viability 72 h (Capivasertib) [nM]	IC50, cell viability 72 h (AZD8186; max 3 µM) [nM]
A673 (Ewing's Sarcoma)	> 10000	> 10000	> 3000	> 1000	6.99	> 10000	> 300	> 1000	> 2000	> 1	132	2.59	> 3000	169	1460	2270	> 10000	34.4	284	> 1000	> 10000	> 10000	> 10000	> 1000	1980	> 1000	> 10000	6720	> 10000	> 10000	> 10000	17.8	> 5000	> 10000	> 20000	–	–
BE-13 (T-Lymphoblastic Leukemia)	> 10000	> 10000	161	> 1000	14.1	3380	> 300	> 1000	809	> 1	44.1	16.8	> 3000	99.9	155	2340	> 10000	20.1	326	312	8670	> 10000	585	> 1000	4780	> 1000	> 10000	> 10000	> 10000	3730	7600	89.9	> 5000	> 10000	> 20000	–	–
BFTC-909 (Kidney Carcinoma)	–	–	579	> 1000	–	> 10000	> 300	> 1000	> 2000	> 1	> 1000	38.7	> 3000	> 1000	7720	–	> 10000	24.7	616	909	> 10000	–	> 10000	> 1000	3460	> 1000	> 10000	3930	> 10000	–	> 10000	–	–	> 10000	–	6100	> 3000
CAL-72 (Osteosarcoma)	> 10000	> 10000	587	> 1000	71.2	> 10000	> 300	> 1000	> 2000	> 1	> 1000	42.3	> 3000	> 1000	5040	6020	> 10000	16.9	> 1000	> 1000	> 10000	> 10000	> 10000	> 1000	2870	> 1000	> 10000	> 10000	> 10000	> 10000	> 10000	128	> 5000	> 10000	> 20000	–	–
ESS-1 (Other Solid Carcinomas)	> 10000	5500	151	989	5.06	> 10000	> 300	> 1000	125	> 1	533	2.56	> 3000	> 1000	3890	500	> 10000	4.52	65.3	319	> 10000	4500	4820	> 1000	1770	> 1000	> 10000	1060	> 10000	930	> 10000	30.6	2980	> 10000	> 20000	–	–
